Experimental findings from patent publication US10689705B2, “FGFR3 fusion gene and pharmaceutical drug targeting same” (Chugai Seiyaku Kabushiki Kaisha, priority 2012, dated 2020) are described below.

As a reminder, the IC50 is the point on the concentration scale where inhibition reaches its midpoint.

The subject of experiment [1] is human bladder cancer cell line SW780. Kind of experiment: Antitumor effect in cancer-bearing nude mice (FGFR3-BAIAP2L1 fusion). The experiment is classed as in vivo, BALB/c nude mice. The settings on record: SW780 xenograft. How it is done:
Nude mice were quarantined for about one week before use, and subjected to subcutaneous transplantation of 5×10^6 SW780 cells in the inguinal region. When the tumor size reached about 200 mm^3, the mice were used in experiments. […] Antitumor effect was determined by comparing the tumor growth during 11 days after the first day of administration (Day 10 when the first day of administration is set at Day 0) with that of the control group. Tumor growth inhibitory effect(TGI)=(1−[Average tumor growth level of treated group]/[Average tumor growth level of control group])×100(%)

In experiment [2] the test system is RT4. Briefly: Cell proliferation inhibition, WST-8, four days (Example 3). It is filed as cell-based. The settings on record: Homo sapiens, RT-4, 96 h, fusion polypeptide expressing. The procedure:
(§1) IC50 was calculated using the least-square method.
A general note: Tetrazolium assays rely on reduction of a dye to a coloured formazan, in cell work by metabolically active cells.

The subject of experiment [3] is SW780. The description is as above. The experiment is classed as cell-based. The settings on record: Homo sapiens, SW780, 96 h, fusion polypeptide expressing. The procedure:
as §1

The test system of experiment [4] is BFTC-905. The description is as above. It is filed as cell-based. To be noted: Homo sapiens, BFTC-905, 96 h, wild-type FGFR, no fusion. How it is done:
as §1

In experiment [5] the test system is RT112/84. Described as above. The experiment is classed as cell-based. To be noted: Homo sapiens, RT112/84, 96 h, fusion polypeptide expressing. The procedure: as §1
For experiment [6], the system named is HT-1376. The experiment is described as above. The experiment is classed as cell-based. To be noted: Homo sapiens, HT-1376, 96 h, does not express FGFR3. How it is done: as §1
Experiment [7] deals with UM-UC-14. The description is as above. The settings on record: Homo sapiens, UMUC14, 96 h, mutated type FGFR, no fusion. The experiment is classed as cell-based. The procedure: as §1
Experiment [8] relates to human bladder cancer cell line RT112/84. Briefly: Antitumor effect in cancer-bearing nude mice (FGFR3-TACC3 fusion). It is filed as in vivo, BALB/c nude mice. To be noted: RT112/84 xenograft. The procedure:
Nude mice were quarantined for about one week before use, and subjected to subcutaneous transplantation of about 1×10^7 RT112/84 cells in the inguinal region. When the tumor size reached about 200 mm^3, the mice were used in experiments.
Antitumor effect was determined by comparing the tumor growth during 11 days after the first day of administration (Day 10 when the first day of administration is set at Day 0) with that of the control group. Tumor growth inhibitory effect(TGI)=(1−[Average tumor growth level of treated group]/[Average tumor growth level of control group])×100(%)

In experiment [9] the test system is RAT-2 cells that stably express FGFR3-BAIAP2L1. The settings on record: orally once daily from seven days after planting; concentration-dependent (FIG. 13).
In experiment [10] the test system is colon cancer-derived cell line HCT116. Kind of experiment: cells. The settings on record: Homo sapiens, HCT-116, 96 h, read-out: HCT116 (CRC) IC50.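 Further: proliferation measured with WST-8, IC50 derived by least-squares fitting.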
In experiment [11] the test system is bladder cancer-derived cell line RT-4 which expresses an FGFR3-TACC3 fusion polypeptide. Briefly: tissue or blood. The settings on record: Homo sapiens, 96 h, read-out: RT-4 (Bladder) IC50.

For `Cc1nc2ccc(-n3ncc(C(=O)c4cc5ccccc5[nH]4)c3N)cc2[nH]1` [COMPOUND A], the “TGI AFTER 11 DAYS” value is reported as 47% in experiment [1] (25 mg/kg orally once a day); 79% in experiment [1] (50 mg/kg orally once a day); 111% in [1] (100 mg/kg orally once a day); 61% in experiment [8] (25 mg/kg orally once a day); 86% in experiment [8] (50 mg/kg orally once a day); 125% in [8] (100 mg/kg orally once a day). For the same compound, the IC50 in experiment [2] is 350 nM; in experiment [3], 120 nM; in experiment [4], over 10000 nM; in experiment [5], 18 nM; in [6], over 10000 nM; in experiment [7], 110 nM. Also, the “tumor enlargement enhanced by the FGFR3-BAIAP2L1 fusion polypeptide” value in [9] was “significantly suppressed”.
As for `CCN(CC)CCCCNc1ncc2cc(-c3cc(OC)cc(OC)c3)c(NC(=O)NC(C)(C)C)nc2n1` [COMPOUND B, PD173074], the IC50 in experiment [2] worked out at 180 nM; in experiment [3], 69 nM; in [4], 14000 nM; in [5], 14 nM; in experiment [6], 11000 nM; in experiment [7] it was 10 nM.
Consider `CCN1CCN(c2ccc(Nc3cc(N(C)C(=O)Nc4c(Cl)c(OC)cc(OC)c4Cl)ncn3)cc2)CC1` [COMPOUND D, BGJ-398], for which the IC50 in experiment [2] is 230 nM; in [3] it was 1100 nM; in experiment [4] it was over 20000 nM; in experiment [5], 18 nM; in [6] it was 10000 nM; in experiment [7], 17 nM.
Take `Cc1nc2ccc(-n3ncc(C(=O)c4cc5ccccc5[nH]4)c3N)cc2[nH]1` [Compound 49]: the IC50 in experiment [10] is 13000 nM; in experiment [11], 350 nM.
Take `COc1cc2c(Oc3ccc4[nH]c(C)cc4c3F)ncnc2cc1OCCCN1CCCC1` [COMPOUND E, cediranib]: the IC50 in experiment [2] was found to be 240 nM; in experiment [3] it was 530 nM; in experiment [4] it was 2500 nM; in [5] it was 150 nM; in experiment [6] it was 1100 nM; in experiment [7] it was 66 nM.
With `COc1cc(CCc2cc(NC(=O)c3ccc(N4C[C@@H](C)N[C@@H](C)C4)cc3)[nH]n2)cc(OC)c1` [COMPOUND C, AZD-4547], the IC50 in experiment [2] was found to be 250 nM; in experiment [3] it was 160 nM; in experiment [4] it was 11000 nM; in experiment [5], 17 nM; in [6], 6700 nM; in experiment [7], 16 nM.
In the case of `CN1CCN(c2ccc3nc(-c4c(N)c5c(F)cccc5[nH]c4=O)[nH]c3c2)CC1` [COMPOUND F, dovitinib], the IC50 in experiment [2] stood at 250 nM; in [3], 570 nM; in [4], 2800 nM; in experiment [5], 130 nM; in experiment [6], 620 nM; in [7], 75 nM.
